Test results as given in patent US20160361311A1, “LIGANDS THAT TARGET HEPATITIS C VIRUS E2 PROTEIN” (AMERICAN UNIVERSITY OF CAIRO, priority 2014, published 2016).
Like-named read-outs stand apart in the source and are kept apart here.

Columns and labels:
[1] = target: T1, recombinant E2 protein (Hepatitis C virus genotype 1b, UniProt Q9WMX2); assay: Surface plasmon resonance (Biacore T100) binding to recombinant E2 immobilized on CM5 chip; conditions: for Binding (RU): 200 μM ligand in PBS, 3 min association; for Dissociation 1 (RU): response remaining 10 sec after rinsing with buffer; for Dissociation 2 (RU): response remaining 50 sec after rinsing with buffer; for rate of ligand dissociation (in words): compared to the other ligands
T1 construct: encoding amino acids 384-656 of the Con1 envelope protein 2 ectodomain (eE2); made in house; host or cells: HEK293T cells (lentiviral, secreted)
Description: A construct containing the sequence encoding amino acids 384-656 of the Con1 envelope protein 2 ectodomain (eE2), a genoptype 1 E2 sequence, was cloned into a lentiviral expression vector with a carboxy-terminal Protein A tag separated by a PreScission Protease cleavage consensus sequence. eE2-ProtA was stably expressed in HEK293T cells using lentiviral infection. The protein was secreted into the media and supernatants were purified using IgG Sepharose (GE Healthcare, Piscataway, N.J.). eE2-ProtA was eluted with 100 mM sodium citrate and 20 mM KCl at pH 3 directly into tubes containing 1M Tris pH 9 for immediate neutralization. PreScission Protease was added to the eluted sample at a ratio of 1:50 (enzyme:eE2), and the digest was then dialyzed into 20 mM HEPES pH 7.5, 250 mM NaCl, 5% glycerol. eE2 was separated from the cleaved tag and the PreScission Protease by ion exchange chromatography.
The set of 34 of the ligands predicted by AutoDock to bind to E2 were tested experimentally to determine if they bind to recombinant E2 protein immobilized on a chip using surface Plasmon resonance. The SPR analyses were performed using a Biacore T100 workstation (GE Healthcare, NJ, USA) and Prot-A-tagged HCV E2 protein. 1 μM ProtA-HCV E2 was diluted into 10 mM sodium acetate buffer pH 5 and immobilized for 15 min at a flow speed of 5 μl/min onto a CM5 sensor chip using amine coupling (EDC-NHS). Approximately 10,000 response units (RU) of protein were immobilized on the chip. His-CD81-LEL (Bioclone-CA/USA) binding to HCV E2 was tested prior to injecting the ligands to confirm the E2 protein was functional and would bind CD81-LEL. In a typical experiment with CD81, […] of his-CD81 in 114 μl PBS was injected into channel 2 and 106.4 RUs of CD81 bound to the E2 on the chip. This was followed by testing the binding of the 34 virtual screening hits where the ligands were prepared as 200 μM solutions in PBS and they were introduced to the protein using a pre-programmed 3 min association and 1 min dissociation interval. The response was measured at two time points during dissociation, 10 and 50 seconds, to obtain information on the rate of ligand dissociation from E2. Twenty-three of the ligands predicted by AutoDock to bind to E2 were observed by SPR to bind to the recombinant protein (Table 2). The measured responses for the ligands that bound varied from 54 to 276 RUs. Data was also obtained on the rate of ligand dissociation by measuring the amount of ligand remaining bound at two time points, dissociation 1 (10 seconds) and dissociation 2 (50 seconds), during the rinsing of the chip with buffer (FIG. 8). The majority of the ligands dissociated quickly, as one might expect for small molecules that bind to the surface of a protein.

[2] = tested on: RD114pp; assay: RD114pp infection of Huh-7 cells (luciferase); type: cell-based, feline endogenous virus RD114; conditions: read-out: IC50 RD114pp
Protocol: (§1) Pseudotyped retroviral particles harboring HCV envelope proteins (HCVpp) from different genotypes were produced as described previously. A plasmid encoding the feline endogenous virus RD114 glycoprotein [35] was used for the production of RD114pp. Both HCVpp and RD114pp expressed Firefly luciferase.
(§2) To identify ligands that inhibit HCV infection, Huh-7 cells were seeded in 96-well plates and treated the day after with six different concentrations of each ligand diluted in DMSO in duplicate using a Zephyr automated liquid handling workstation (Caliper BioSciences, Hopkinton, Mass.). The final concentration of DMSO (1%) was adjusted to be the same for all ligand concentrations. Cells treated with DMSO were used as negative controls. Cells treated with different concentrations of anti-CD81 (JS-81 from BD Pharmingen, San Jose, Calif.) 1 hour before infection, were also used as positive controls. The third day, RD114pp, HCVpp or HCVcc were inoculated and incubated for 30 hours at 37° C. Firefly and Gaussia luciferase assays were performed as indicated by the manufacturer (Promega, San Luis Obispo, Calif.).
Pseudotyped retroviral particles harboring the envelope protein of an endogenous feline retrovirus (RD114pp) were first used to determine the specificity and the safety of molecules.

[3] = tested on: HCVpp 2a; assay: HCVpp 2a infection of Huh-7 cells, 96-well (luciferase); type: cell-based, HCV; conditions: Hepatitis C virus, Huh-7, 30 h, read-out: IC50 HCVpp
Protocol: as §1, §2
(§3) The remaining ligands were next tested against pseudotyped retroviral particles harboring genotype-2a HCV envelope proteins (HCVpp 2a), cell culture produced HCV particles (HCVcc) or RD114pp. As a positive control, an anti-CD81 antibody was used in parallel.

[4] = tested on: HCVcc; assay: HCVcc infection of Huh-7 cells (Gaussia luciferase); type: cell-based, HCV; conditions: Hepatitis C virus, Huh-7, 30 h, read-out: IC50 HCVcc
Protocol: The cell culture-produced HCV particles (HCVcc) used in this study were based on the JFH1 strain [36] and were prepared as described previously. They were engineered to express the A4 epitope, titer-enhancing mutations and Gaussia luciferase.
as §2, §3

[5] = Feline endogenous virus RD114, Huh-7, 30 h

T1 sequence (Q9WMX2 384-656): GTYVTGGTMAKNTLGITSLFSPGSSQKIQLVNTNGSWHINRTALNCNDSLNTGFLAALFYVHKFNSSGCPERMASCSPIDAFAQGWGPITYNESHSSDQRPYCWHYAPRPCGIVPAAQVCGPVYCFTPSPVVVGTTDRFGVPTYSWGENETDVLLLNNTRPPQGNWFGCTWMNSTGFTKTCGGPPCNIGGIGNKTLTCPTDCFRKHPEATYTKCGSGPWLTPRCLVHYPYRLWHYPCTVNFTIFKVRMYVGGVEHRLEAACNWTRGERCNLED

| SMILES | Binding (RU) [1] [RU] | Dissociation 1 (RU) [1] [RU] | Dissociation 2 (RU) [1] [RU] | IC50 [2, 5] [µM] | IC50 [3] [µM] | IC50 [4] [µM] | rate of ligand dissociation (in words) [1] | IC50 ([2]; Huh-7 cells, 30 hours) [µM] | binding to recombinant E2 protein by SPR (in words) [1] |
| --- | --- | --- | --- | --- | --- | --- | --- | --- | --- |
| c1ccc(-c2ccc3c(c2)N[C@H]([C@H]2Nc4cc(-c5ccccc5)ccc4O2)O3)cc1 [Ligand 84100, (2S)-5-phenyl-2-[(2S)-5-phenyl-2,3-dihydro-1,3-benzoxazol-2-yl]-2,3-dihydro-1,3-benzoxazole] | 71.2 | 4.2 | 2.2 | > 10 | > 10 | > 10 |  |  |  |
| Cc1ccc([N+](=O)[O-])cc1NC(=O)Nc1ccc(S(N)(=O)=O)cc1 [Ligand 146554, 1-(2-methyl-5-nitrophenyl)-3-(4-sulfamoylphenyl)urea] | 63.4 | 3.1 | 0.8 | > 10 |  |  |  |  |  |
| O=[N+]([O-])c1cc([N+](=O)[O-])c2cccnc2c1O [Ligand 57103] | 81.6 | 11.4 | 2.5 | 0.3 |  |  | slower off rates |  |  |
| Nc1nc(N)nc(-c2ccccc2-c2nc(N)nc(N)n2)n1 [Ligand 4429, 6-[2-(4,6-diamino-1,3,5-triazin-2-yl)phenyl]-1,3,5-triazine-2,4-diamine] | 155.3 | 28.9 | 14.2 | > 10 | > 10 | > 10 | slower off rates |  |  |
| Cc1ccc([N+](=O)[O-])cc1NC(=O)Nc1onc(C)c1C [Ligand 213700, 1-(3,4-dimethyl-1,2-oxazol-5-yl)-3-(2-methyl-5-nitrophenyl)urea] | 62 | 3.1 | 0.8 | > 10 | > 10 | > 10 |  |  |  |
| CC[C@@]1(O)C(=O)OCc2c1cc1n(c2=O)Cc2cc3c(NC(=O)CN)cccc3nc2-1.Cl [Ligand 639174] | 55.4 | 2.3 | 0.6 |  |  |  |  | 0.03 |  |
| NC1=Nc2ccccc2C(=O)[N+]1=C(N)N [Ligand 403379, 2-amino-3-(diaminomethylidene) quinazolin-3-ium-4-one] | 58 | 2.8 | 1.1 | > 10 | > 10 | > 10 |  |  |  |
| O=S(=O)(F)c1ccc2nc(-c3cccc(Sc4ccccc4)c3)cc(Cl)c2c1 [Ligand 158413, 4-chloro-2-(3-phenylsulfanylphenyl) quinoline-6-sulfonyl fluoride] | 71.2 | 10.3 | 8.5 | > 10 | > 10 | > 10 | slower off rates |  |  |
| O=C1CCCc2cc3c(cc21)CC1(C3)Cc2cc3c(cc2C1)C(=O)CCC3 [Ligand 670283, 2,2′-spirobi[3,6,7,8-tetrahydro-1H-cyclopenta[g]naphthalene]-5,5′-dione] | 54.3 | 4 | 1.4 | 3 |  |  |  |  |  |
| COc1ccc(C2=C[C@@H](c3ccc(OC)c(OC)c3)c3c(c4ccccc4oc3=O)O2)cc1OC [Ligand 211490, (4S)-2,4-bis(3,4-dimethoxyphenyl)-4H-pyrano[3,2-c]chromen-5-one] | 102.9 | 6.1 | 2.1 | 0.5 |  |  |  |  |  |
| O=C(O)C[C@H]1OCC=C2CN3CC[C@]45c6ccccc6N[C@H]4[C@H]1[C@H]2C[C@H]35 [Ligand 121861] | 88.4 | 26.1 | 20.4 | > 10 | > 10 | > 10 | slower off rates |  | bound |
| CC12CCC3C(CCC4Cc5[nH]c6ccccc6c5CC43C)C1CCC2O (centres unmarked) [Ligand 60785] | 70.4 | 2.8 | 0.6 | 3.5 |  |  |  |  |  |
| C1C[C@H]2NCC[C@@H]3NCC[C@H](N1)N32 [Ligand 81462] | 57.2 | 9.2 | 6.5 | > 10 | > 10 | > 10 | slower off rates |  |  |
| Cc1nc(/N=C(\N)N(C)C)[nH]c(=O)c1C [Ligand 113486, 2-(5,6-dimethyl-4-oxo-1H-pyrimidin-2-yl)-1,1-dimethylguanidine] | 104.7 | 7 | 2.6 | > 10 | > 10 | > 10 |  |  |  |
| CC1(C)N=C(N)N=C(N)N1c1ccc(OCCCOc2ccccc2)c(Cl)c1 [Ligand 133071, 3-[3-chloro-4-(3-phenoxypropoxy)phenyl]-4,4-dimethyl-1H-1,3,5-triazin-3-ium-2,6-diamine] | 276.3 | 1.8 | −2 | 0.1 |  |  |  |  |  |
| NC1=N/C(=N\c2ccccc2)N[C@H](c2ccccc2)N1 [Ligand 3076, (4R)-6-N,4-diphenyl-1,4-dihydro-1,3,5-triazine-2,6-diamine] | 92.2 | 3.2 | 1.6 | 0.25 |  |  |  |  |  |
